Measured values published in patent US5238938A, “Indole derivatives” (Otsuka Pharmaceutical Co., Ltd., priority 1989, dated 1993).
In brackets after ≈: the same amount, converted by molar mass.

These molecules were tested on superoxide radicals (O2^-) released from the peritoneal macrophage cells of guinea pig (assay: Inhibitory effect against superoxide radicals (O2^-) released from the peritoneal macrophage cells of guinea pig by stimulation). Details: Cavia porcellus, Peritoneal macrophage cell; guinea pig peritoneal macrophages 2×10^6 cells/ml; FMLP 10^-7 M; cytochrome C reduction, OD550; 37° C.; read-out: 50% inhibitory concentration (IC50), superoxide radical release.
Format: cell-based
Protocol: Inhibitory effect against superoxide radicals (O2^-) released from the peritoneal macrophage cells of guinea pig by stimulation
Mineral oil (15 ml) was intraperitoneally administered to a guinea pig, then 96 hours after the administration, the peritoneal macrophage cells were samples.
Superoxide redicals (O2^-) were determined by means of reduction of cytochrome C method according to the procedure described in an article by T. Matsumoto, K. Takeshige and S. Minakami: Biochemical and Biophysical Research Communications, Vol. 88, No. 3, pp. 974-979, (1979).
The peritoneal macrophage cells were added to make the final concentration of 2×10^6 cells/ml into 1 ml of 80 μM-cytochome C solution, and the test compound of indole derivative of the present invention was added thereto to make the test group sample. On the other hand, water was added in place of the indole derivative of the present invention to make the control group sample. Each of the test group sample and the control group sample was subjected to pure incubaiton at 37° C. for 1 minute.
As to the stimulating agent for releasing superoxide radicals (O2^-), FMLP (formylmethionyl leucyl phenylalanine) was added to make the final concentration thereof to 10^-7 M, to each of the test group sample and the control group sample. Then both samples were subjected to additional reaction by incubation for 1 minute.
Difference of the optical absorbances measured at 550 nm (OD550) of both test group and control group samples were determined, and the 50% inhibitory concentration (IC50) was obtained by calculating as the ratio of OD550 of the test group sample to that of the control group sample.

Structure (SMILES)	IC50
CC(=O)Nc1c(Cc2c[nH]c3ccccc23)[nH]c(=O)c(CC(C)C)[n+]1[O-] [Compound A-63, 5-acetamino-6-(indol-3-yl)methyl-3-isobutyl1,2-dihydropyrazin-2-one 4-oxide]	30 µg/mL (≈ 84.6 µM)
COc1c(Cc2cn(C)c3ccccc23)nc(OCc2ccccc2)c(CC(C)C)[n+]1[O-] [Compound E-67a, 3-Benzyloxy-2-isobutyl-5-[(1-methyl)indol-3-yl]methyl-6-methoxypyrazine 1-oxide]	10 µg/mL (≈ 23.2 µM)
COc1c(Cn2ccc3ccccc32)[nH]c(=O)c(CC(C)C)[n+]1[O-] [Compound E-36p, 6-(Indol-1-yl)methyl-3-isobutyl-5-methoxy-1,2-dihydropyrazin-2-one 4-oxide]	8 µg/mL (≈ 24.4 µM)
COc1nc(CC(C)C)c(=O)[nH]c1Cc1c[nH]c2ccccc12 [Compound A-16]	50 µg/mL (≈ 161 µM)
CC(C)Cc1c(=O)[nH]c(Cc2c[nH]c3ccccc23)c(S(C)(=O)=O)[n+]1[O-] [Compound E-57d, 6-(Indol-3-yl)methyl-3-isobutyl-5-methylsulfonyl-1,2-dihydropyrazin-2-one 4-oxide]	10 µg/mL (≈ 26.6 µM)
CC(C)Cc1c(=O)[nH]c(Cc2c[nH]c3ccccc23)c(N)[n+]1[O-] [Compound A-62, 5-amino-6-(indol-3-yl)methyl-3-isobutyl-1,2-dihydropyrazin-2-one 4-oxide]	12 µg/mL (≈ 38.4 µM)
COC(=O)n1cc(Cc2nc(Cl)c(CC(C)C)n(OC)c2=O)c2ccccc21 [Compound A-47, 5-Chloro-6-isobutyl-3-[(1-methoxycarbonyl)indol-3-yl]methyl-1-methoxy-12,-dihydropyrazin-2-one]	25 µg/mL (≈ 61.9 µM)
CC(C)C[C@@H]1C(=O)N(C)[C@@H](Cc2c[nH]c3ccccc23)C(=O)N1O [Compound E-72a, (3S,6R)-1-Hydroxy-3-(indol-3-yl)methyl-6-isobutyl-4-methylpiperazine-2,5-dione]	0.8 µg/mL (≈ 2.43 µM)
COc1c(Cc2c[nH]c3ccc(O)cc23)[nH]c(=O)c(CC(C)C)[n+]1[O-] [Compound E-34j, 6-[(5-Hydroxy)indol-3-yl]methyl-3-isobutyl-5-methoxy-1,2-dihydropyrazin-2-one 4-oxide]	10 µg/mL (≈ 29.1 µM)
CC(C)Cc1c(=O)[nH]c(Cc2c[nH]c3ccccc23)c(OC(C)C)[n+]1[O-] [Compound E-46a, 6-(Indol-3-yl)methyl-3-isobutyl-5-isopropoxy-1,2-dihydroipyrazin-2-one 4-oxide]	3 µg/mL (≈ 8.44 µM)
COc1ccc2[nH]cc(Cc3[nH]c(=O)c(CC(C)C)[n+]([O-])c3OC)c2c1 [Compound E-34h, 3-Isobutyl-5-methoxy-6-[(5-methoxy)indol-3-yl]methyl-1,2-dihydropyrazin-2-one 4-oxide]	5 µg/mL (≈ 14 µM)
COc1c(Cc2c[nH]c3ccccc23)nc(Cl)c(CC(C)C)[n+]1[O-] [Compound A-46, 3-chloro-5-(indol-3-yl)methyl-2-isobutyl-6-methoxypyrazine-1-oxide]	30 µg/mL (≈ 86.7 µM)
CSc1c(Cc2c[nH]c3ccccc23)[nH]c(=O)c(CC(C)C)[n+]1[O-] [Compound E-57c, 6-(Indol-3-yl)methyl-3-isobutyl-5-methylthio-1,2-dihydropyrazin-2-one 4-oxide]	10 µg/mL (≈ 29.1 µM)
CCOc1c(Cc2c[nH]c3ccccc23)[nH]c(=O)c(CC(C)C)[n+]1[O-] [Compound E-12, 5-Ethoxy-6-(indol-3-yl)methyl-3-isobutyl-1,2-dihydropyrazin-2-one 4-oxide]	8 µg/mL (≈ 23.4 µM)
CCc1c(Cc2c[nH]c3ccccc23)[nH]c(=O)c(CC(C)C)[n+]1[O-] [Compound A-82b, 5-Ethyl-6-(indol-3-yl)methyl-3-isobutyl-1,2-dihydropyrazin-2-one 4-oxide]	12 µg/mL (≈ 36.9 µM)
CC(C)C[C@@H]1C(=O)N(C)[C@@H](Cc2cn(C)c3ccccc23)C(=O)N1O [Compound E-73a, (3S,6R)-1-Hydroxy-6-isobutyl-4-methyl-3-[(1-methyl)indol-3-yl]methylpiperazine-2,5-dione]	2 µg/mL (≈ 5.82 µM)
CC(C)Cc1c(=O)[nH]c(-c2c[nH]c3ccccc23)c(Cl)[n+]1[O-] [Compound E-30, 5-Chloro-6-(indol-3-yl)-3-isobutyl-1,2-dihydropyrazin-2-one 4-oxide]	8 µg/mL (≈ 25.2 µM)
CC(C)C[C@H]1C(=O)N[C@@H](Cc2c[nH]c3ccccc23)C(=O)N1O [Compound A-29a, (3S,6S)-1-Hydroxy-3-(indol-3-yl)methyl-6-isobutylpiperazine-2,5-dione]	50 µg/mL (≈ 159 µM)
CC(C)Cc1c(=O)[nH]c(Cc2c[nH]c3ccccc23)c(Cl)[n+]1[O-] [Compound E-57a, 5-Chloro-6-(indol-3-yl)methyl-3-isobutyl-1,2-dihydropyrazin-2-one 4-oxide]	10 µg/mL (≈ 30.1 µM)
COc1ccc2[nH]c(C)c(Cc3[nH]c(=O)c(CC(C)C)[n+]([O-])c3OC)c2c1 [Compound E-34k, 3-Isobutyl-5-methoxy-6-[(5-methoxy-2-methyl)indol-3-yl]methyl-1,2-dihydropyrazin-2-one 4-oxide]	2 µg/mL (≈ 5.38 µM)
CC(C)Cc1c(Cl)nc(Cc2c[nH]c3ccccc23)c(=O)n1O [Compound A-38, 5-chloro-1-hydroxy-3-(indol-3-yl)methyl-6-isobutyl-1,2-dihydropyrazin-2-one]	6 µg/mL (≈ 18.1 µM)
COc1c(Cc2c[nH]c3ccccc23)[nH]c(=O)c(Cc2c[nH]c3ccccc23)[n+]1[O-] [Compound E-6g, 3,6-Di(indol-3-yl)methyl-5-methoxy-1,2-dihydropyrazin-2-one 4-oxide]	1.5 µg/mL (≈ 3.75 µM)
COc1c(Cc2c[nH]c3ccccc23)[nH]c(=O)c(Cc2ccccc2)[n+]1[O-] [Compound E-6d, 3-Benzyl-6-(indol-3-yl)methyl-5-methoxy-1,2-dihydropyrazin-2-one 4-oxide]	5 µg/mL (≈ 13.8 µM)
COc1c(Cc2c[nH]c3ccc(Br)cc23)[nH]c(=O)c(CC(C)C)[n+]1[O-] [Compound E-34c, 6-[(5-Bromo)indol-3-yl]methyl-3-isobutyl-5-methoxy-1,2-dihydropyrazin-2-one 4-oxide]	5 µg/mL (≈ 12.3 µM)
CC(C)C[C@@H]1C(=O)N[C@@H](Cc2c[nH]c3ccccc23)C(=O)N1O [Compound A-30a, (3S,6R)-1-Hydroxy-3-(indol-3-yl)methyl-6-isobutylpiperazine-2,5-dione]	10 µg/mL (≈ 31.7 µM)
COc1c(Cc2c[nH]c3ccc(F)cc23)[nH]c(=O)c(CC(C)C)[n+]1[O-] [Compound E-34a, 6-[(5-Fluoro)indol-3-yl]methyl-3-isobutyl-5-methoxy-1,2-dihydropyrazin-2-one 4-oxide]	10 µg/mL (≈ 29 µM)
CC(C)Cc1c(=O)[nH]c(Cc2c[nH]c3ccccc23)c([S+](C)[O-])[n+]1[O-] (stereo not drawn) [Compound E-58, 6-(Indol-3-yl)methyl-3-isobutyl-5-methylsulfinyl-1,2-dihydropyrazin-2-one 4-oxide]	6 µg/mL (≈ 16.7 µM)
COc1c(Cc2c[nH]c3ccccc23)[nH]c(=O)c(CC2CCCCC2)[n+]1[O-] [Compound E-6f, 3-Cyclohexylmethyl-6-(indol-3-yl)methyl-5-methoxy-1,2-dihydropyrazin-2-one 4-oxide]	4 µg/mL (≈ 10.9 µM)
COc1c(Cc2c[nH]c3c(C)cccc23)[nH]c(=O)c(CC(C)C)[n+]1[O-] [Compound E-34f, 3-Isobutyl-5-methoxy-6-[(7-methyl)indol-3-yl]methyl-1,2-dihydropyrazin-2-one 4-oxide]	7 µg/mL (≈ 20.5 µM)
COC1=N[C@@H](CC(C)C)C(=O)N/C1=C\c1c[nH]c2ccccc12 [Compound A-17, (3S,Z)-6-(Indol-3-yl)methylidene-3-isobutyl-5-methoxy-1,2,3,6-tetrahydropyrazin-2-one]	15 µg/mL (≈ 48.2 µM)
